{"source": "patent US9701658B2", "about": "“Amide derivatives as TTX-S blockers” (RaQualia Pharma Inc., priority 2012, dated 2017)", "type_in_all_cases": "cell-based", "key": {"[1]": {"biological_target": "T1, human Nav1.3 (Homo sapiens, UniProt Q9NY46)", "T1 construct": "expressed in transfected cells; host or cells: HEK293", "T1 sequence (Q9NY46 whole entry)": "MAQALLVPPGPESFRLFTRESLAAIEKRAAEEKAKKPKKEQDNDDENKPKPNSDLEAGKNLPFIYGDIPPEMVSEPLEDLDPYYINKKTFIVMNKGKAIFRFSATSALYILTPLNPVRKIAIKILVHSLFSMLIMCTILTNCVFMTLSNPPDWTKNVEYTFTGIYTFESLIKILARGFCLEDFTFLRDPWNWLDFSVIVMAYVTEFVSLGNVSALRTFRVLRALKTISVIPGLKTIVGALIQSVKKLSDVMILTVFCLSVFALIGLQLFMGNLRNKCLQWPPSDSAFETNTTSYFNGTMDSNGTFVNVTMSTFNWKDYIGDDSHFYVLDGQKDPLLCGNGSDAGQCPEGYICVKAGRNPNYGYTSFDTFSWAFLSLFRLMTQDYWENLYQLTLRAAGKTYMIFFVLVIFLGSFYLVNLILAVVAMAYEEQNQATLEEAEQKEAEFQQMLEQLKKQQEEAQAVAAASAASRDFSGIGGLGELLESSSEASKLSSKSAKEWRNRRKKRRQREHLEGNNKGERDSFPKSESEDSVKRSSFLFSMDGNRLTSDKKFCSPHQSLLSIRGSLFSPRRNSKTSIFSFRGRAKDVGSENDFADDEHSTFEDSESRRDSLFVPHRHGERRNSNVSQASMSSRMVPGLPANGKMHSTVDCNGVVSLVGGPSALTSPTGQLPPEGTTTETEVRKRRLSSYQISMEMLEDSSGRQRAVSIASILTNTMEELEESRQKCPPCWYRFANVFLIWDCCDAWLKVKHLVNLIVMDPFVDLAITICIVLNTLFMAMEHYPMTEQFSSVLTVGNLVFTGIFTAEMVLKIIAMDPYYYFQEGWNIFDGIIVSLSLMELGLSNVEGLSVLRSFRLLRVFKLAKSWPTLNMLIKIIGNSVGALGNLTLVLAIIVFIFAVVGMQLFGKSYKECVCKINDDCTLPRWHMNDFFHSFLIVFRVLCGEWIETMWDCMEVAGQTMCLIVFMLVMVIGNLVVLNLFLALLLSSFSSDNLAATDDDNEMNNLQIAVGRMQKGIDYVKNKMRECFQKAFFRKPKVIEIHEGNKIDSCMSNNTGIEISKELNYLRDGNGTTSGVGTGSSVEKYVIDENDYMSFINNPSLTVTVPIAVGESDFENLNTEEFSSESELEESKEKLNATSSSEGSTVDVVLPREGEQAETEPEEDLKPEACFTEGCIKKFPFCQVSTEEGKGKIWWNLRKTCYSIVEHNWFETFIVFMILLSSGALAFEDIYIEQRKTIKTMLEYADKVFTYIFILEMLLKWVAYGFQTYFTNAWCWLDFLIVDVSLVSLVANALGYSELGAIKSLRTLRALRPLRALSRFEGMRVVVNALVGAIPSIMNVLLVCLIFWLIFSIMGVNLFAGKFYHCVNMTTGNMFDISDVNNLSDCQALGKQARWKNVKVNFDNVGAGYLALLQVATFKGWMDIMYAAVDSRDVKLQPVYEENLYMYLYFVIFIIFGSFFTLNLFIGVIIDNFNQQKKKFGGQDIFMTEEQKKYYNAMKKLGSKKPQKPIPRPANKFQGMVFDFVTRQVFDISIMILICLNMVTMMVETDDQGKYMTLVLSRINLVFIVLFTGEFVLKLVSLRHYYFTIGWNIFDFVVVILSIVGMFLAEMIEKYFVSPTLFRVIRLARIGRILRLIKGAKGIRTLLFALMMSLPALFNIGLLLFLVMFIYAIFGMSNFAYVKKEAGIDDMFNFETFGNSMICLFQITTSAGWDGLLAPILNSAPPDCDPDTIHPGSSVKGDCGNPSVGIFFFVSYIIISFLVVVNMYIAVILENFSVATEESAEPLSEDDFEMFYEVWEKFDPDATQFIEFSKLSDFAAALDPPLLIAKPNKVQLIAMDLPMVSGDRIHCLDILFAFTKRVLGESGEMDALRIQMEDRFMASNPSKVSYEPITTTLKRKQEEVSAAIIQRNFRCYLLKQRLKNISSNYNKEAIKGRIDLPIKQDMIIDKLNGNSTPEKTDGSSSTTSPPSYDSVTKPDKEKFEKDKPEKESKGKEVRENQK", "test": "FRET assay, human Nav1.3 channels (HEK293, EFS on FDSS)", "details": "read-out: activity (IC50) against Nav1.3", "experimental": "(§1) The ability of the amide derivatives of the formula (I) to inhibit the Nav1.3, Nav1.7 and Nav1.5 channels is measured by Fluorescence Resonance Energy Transfer (FRET) assay and electrophysiology assay described below.\n(§2) This screen is used to determine the effects of compounds on human Nav1.3, human Nav1.7, and human Nav1.5 channels, utilizing electrical field stimulation (EFS) system in 96-well plate format on FDSS (Hamamatsu Photonics) platform. The change of membrane potential is monitored with FRET dye pair, oxonol (DiSBAC2(3)) and coumarin (CC2-DMPE).\n(§3) Each HEK293 cells expressing human Nav1.3 channels and HEK293 cells expressing human Nav1.5 channels are grown in T225 flasks, in a 5% CO2 humidified incubator to about 80% confluence. Media composition consists of Dulbecco's Modified Eagle Medium (high glucose), 10% FCS, 100 units/mL Penicillin, 100 microgram/mL Streptomycin and 500 microgram/mL Geneticin™. […]\n(§4) The data are analyzed and reported as normalized ratios of intensities measured at […]. […]\n(§5) This analysis is performed using a computerized specific program designed for FDSS generated data. Fluorescence ratio values are plotted using XLfit™ to determine an IC50 value for each compound."}, "[2]": {"biological_target": "T2, human Nav1.7 (Homo sapiens, UniProt Q15858)", "T2 construct": "expressed in transfected cells; host or cells: CHO", "test": "FRET assay, human Nav1.7 channels (CHO, EFS on FDSS)", "details": "read-out: activity (IC50) against Nav1.7", "experimental": "as §1, §2\nCHO cells expressing human Nav1.7 channels are grown in T225 flasks, in a 5% CO2 humidified incubator to about 80% confluence. Media composition consists of HAM/F12 with Glutamax I, 10% FCS, 100 units/mL Penicillin and 100 microgram/mL Hygromycin. […]\nas §4, §5"}, "[3]": {"biological_target": "T3, human Nav1.5 (Homo sapiens, UniProt Q14524)", "T3 construct": "expressed in transfected cells; host or cells: HEK293", "T3 sequence (Q14524 whole entry)": "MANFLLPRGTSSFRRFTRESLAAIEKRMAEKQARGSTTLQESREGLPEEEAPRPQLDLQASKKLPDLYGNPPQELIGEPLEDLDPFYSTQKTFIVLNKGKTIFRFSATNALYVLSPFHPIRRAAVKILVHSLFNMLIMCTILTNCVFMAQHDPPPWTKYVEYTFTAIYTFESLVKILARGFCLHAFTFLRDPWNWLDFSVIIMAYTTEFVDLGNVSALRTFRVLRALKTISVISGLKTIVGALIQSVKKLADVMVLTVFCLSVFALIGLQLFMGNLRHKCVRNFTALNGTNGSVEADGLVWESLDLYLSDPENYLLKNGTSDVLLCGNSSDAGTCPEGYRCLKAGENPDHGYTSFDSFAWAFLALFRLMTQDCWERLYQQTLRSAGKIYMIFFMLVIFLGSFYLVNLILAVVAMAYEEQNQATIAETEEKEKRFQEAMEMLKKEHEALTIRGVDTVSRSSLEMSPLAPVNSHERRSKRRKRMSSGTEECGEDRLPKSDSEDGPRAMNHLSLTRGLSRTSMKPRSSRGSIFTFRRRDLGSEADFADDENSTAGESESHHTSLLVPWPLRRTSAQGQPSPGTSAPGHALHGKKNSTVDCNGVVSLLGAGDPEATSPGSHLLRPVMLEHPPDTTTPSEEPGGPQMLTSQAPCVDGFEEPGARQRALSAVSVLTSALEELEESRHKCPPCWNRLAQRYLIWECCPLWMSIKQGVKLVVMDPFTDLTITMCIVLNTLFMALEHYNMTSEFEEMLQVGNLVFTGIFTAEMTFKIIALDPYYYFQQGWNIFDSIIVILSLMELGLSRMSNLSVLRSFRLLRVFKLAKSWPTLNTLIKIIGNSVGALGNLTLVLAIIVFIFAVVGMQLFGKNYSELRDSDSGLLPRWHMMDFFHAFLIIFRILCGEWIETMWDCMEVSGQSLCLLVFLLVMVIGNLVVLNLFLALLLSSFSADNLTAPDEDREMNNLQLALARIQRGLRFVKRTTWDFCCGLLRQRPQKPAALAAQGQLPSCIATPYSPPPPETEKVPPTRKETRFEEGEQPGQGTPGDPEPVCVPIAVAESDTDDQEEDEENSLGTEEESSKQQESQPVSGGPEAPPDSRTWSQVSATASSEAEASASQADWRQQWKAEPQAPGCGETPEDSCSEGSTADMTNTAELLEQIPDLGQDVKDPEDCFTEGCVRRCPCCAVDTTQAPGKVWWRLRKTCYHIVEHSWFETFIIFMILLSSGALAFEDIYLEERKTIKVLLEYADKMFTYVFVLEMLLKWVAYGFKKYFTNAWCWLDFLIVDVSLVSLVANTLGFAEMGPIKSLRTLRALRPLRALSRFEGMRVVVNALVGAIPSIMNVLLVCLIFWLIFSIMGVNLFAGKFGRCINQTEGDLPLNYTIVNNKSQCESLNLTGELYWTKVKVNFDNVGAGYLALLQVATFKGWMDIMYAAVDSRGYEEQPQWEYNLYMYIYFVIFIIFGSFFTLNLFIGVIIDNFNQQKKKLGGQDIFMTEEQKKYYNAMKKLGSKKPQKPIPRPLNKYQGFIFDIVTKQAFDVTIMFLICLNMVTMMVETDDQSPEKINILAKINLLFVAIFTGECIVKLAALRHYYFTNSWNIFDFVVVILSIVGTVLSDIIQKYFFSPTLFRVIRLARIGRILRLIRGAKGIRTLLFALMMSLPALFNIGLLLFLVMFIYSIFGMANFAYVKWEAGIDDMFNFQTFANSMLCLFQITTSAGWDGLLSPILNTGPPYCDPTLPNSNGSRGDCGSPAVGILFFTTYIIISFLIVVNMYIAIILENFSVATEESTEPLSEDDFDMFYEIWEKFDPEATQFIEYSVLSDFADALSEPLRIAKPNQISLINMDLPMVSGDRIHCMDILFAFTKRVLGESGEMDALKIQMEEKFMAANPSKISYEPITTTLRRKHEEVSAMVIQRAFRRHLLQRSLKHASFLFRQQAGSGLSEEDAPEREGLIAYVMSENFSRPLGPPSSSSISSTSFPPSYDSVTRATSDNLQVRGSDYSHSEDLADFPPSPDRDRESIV", "test": "FRET assay, human Nav1.5 channels (HEK293, EFS on FDSS)", "details": "read-out: activity (IC50) against Nav1.5", "experimental": "as §1, §2, §3, §4, §5"}, "[4]": {"biological_target": "T4, human Nav1.7 (hSCN9A) (Homo sapiens, UniProt Q15858)", "T4 construct": "expressed in transfected cells; host or cells: CHO", "test": "Electrophysiology assay for Navs, whole cell patch clamp, human Nav1.7 (hSCN9A) expressing CHO cells", "details": "Kinact, read-out: activity (Ki) against Nav1.7, dissociation constant for the inactivated state", "experimental": "Electrophysiology Assay for Navs\nWhole cell patch clamp recording is used to assess the efficacy or selectivity of Na channel blocker on human Nav1.3 (hSCN3A) expressing HEK293 cells or human Nv1.7 (hSCN9A) expressing CHO cells. Human Nav1.3 expressing HEK293 cells are grown in growth media which contain: Dulbecco's […] (DMEM), 10% heat-inactivated fetal bovine serum (FBS) (Hyclone Laboratories Inc), 100 microgram/mL Penicillin/100 U/mL Streptomycin, 150 microgram/mL Zeocin, 3 microgram/mL Geneticin. Human Nav1.7 expressing CHO cells are grown in growth media which comprised: HAM/F-12, 9% heat-inactivated FBS (Hyclone Laboratories Inc) and 100 microgram/mL Penicillin/100 U/mL Streptomycin, 100 microgram/mL Hygromycin.\nNa channel expressing cells are dissociated by 0.05% trypsine-EDTA, and then seeded on cover glass for 24 to 48 hr. […]\nThe normalized steady-state inactivation curve is constructed using 2 sec (for vehicle) or 60 sec (for drugs) conditioning pulse to different potentials followed immediately by the test pulse to −10 mV. […] The affinity of drugs to resting state of Na channels (Kresting or Kr) is assessed by 30 msec test pulse from a negative holding potential of −120 or −130 mV, where virtually all channels are in the resting state. Kr value is calculated by a conventional 1:1 binding model: Kresting(Kr)={[drug]Imax,drug/(Imax,control−Imax,drug)} […]"}}, "note": "pIC50, pKi: −log10 of the molar value."}
{"smiles": "CCC(=O)Nc1cc(CNC(=O)c2ccc(OCC(F)(F)F)nc2)cc(C)n1", "note": "[Example 12, N-((2-methyl-6-propionamidopyridin-4-yl)methyl)-6-(2,2,2-trifluoroethoxy) nicotinamide]", "values": [{"measurement": "pIC50", "setting": "[1]", "result": 6.29}, {"measurement": "pIC50", "setting": "[2]", "result": 6.00}, {"measurement": "pIC50", "setting": "[3]", "result": "< 4.52"}]}
{"smiles": "CC(=O)Nc1cc(C(C)NC(=O)c2ccc(OCC(F)(F)F)cn2)cc(C)n1", "note": "(single isomer, unassigned) [Example 29, N-(1-(2-acetamido-6-methylpyridin-4-yl)ethyl)-5-(2,2,2-trifluoroethoxy) picolinamide]", "values": [{"measurement": "pKi", "setting": "[4]", "result": 6.02}]}
